# Laboratory results: ChEMBL document CHEMBL1132705, “Synthesis and biological activities of spiroheterocyclic growth hormone secretagogues” (Bioorg Med Chem Lett, 1999)
# Organism: Canis familiaris
# Experiment: Minimum effective dose required for oral activity in beagles that caused at least five fold elevation of growth hormone (GH) over basal levels
# Type: functional
# Conditions: Canis lupus familiaris, read-out: MED
row,Structure (SMILES),minimal effective dose [mg/kg]
1,CC(C)(N)C(=O)N[C@H](CCCc1ccccc1)C(=O)N1CCC2(CCc3ccccc32)CC1.Cl,5
2,CC(C)(N)C(=O)N[C@H](CCC1CCCCC1)C(=O)N1CCC2(CC1)CS(=O)(=O)c1ccccc12.Cl,0.25
3,CC(C)(N)C(=O)N[C@H](CCCc1ccccc1)C(=O)N1CCC2(CC1)C[S+]([O-])c1ccccc12.Cl (stereo partly specified),0.25
4,CC(C)(N)C(=O)N[C@H](CCCc1ccccc1)C(=O)N1CCC2(CC1)CS(=O)(=O)c1ccccc12.Cl,0.125

# Organism: Rattus norvegicus
# Experiment: Stimulation of growth hormone (GH) release determined in vitro by rat pituitary cell assay.
# Type: functional
# Conditions: Pituitary gland cell
row,Structure (SMILES),EC50 [nM]
1,CC(C)(N)C(=O)N[C@H](CCc1ccccc1)C(=O)N1CCC2(CCc3ccccc32)CC1,22
2,CC(C)(N)C(=O)N[C@H](CCc1ccccc1)C(=O)N1CCC2(CC1)CSc1ccccc12,57
3,CC(C)(N)C(=O)N[C@H](CCC1CCCCC1)C(=O)N1CCC2(CCc3ccccc32)CC1,21
4,CC(C)(N)C(=O)N[C@H](COCc1ccccc1)C(=O)N1CCC2(CC1)COc1ccccc12,8.5
5,CC(C)(N)C(=O)N[C@H](CCCc1ccccc1)C(=O)N1CCC2(CC1)CSc1ccccc12,4.8
6,CC(C)(N)C(=O)N[C@H](Cc1c[nH]c2ccccc12)C(=O)N1CCC2(CC1)CSc1ccccc12,5.6
7,CC(C)(N)C(=O)N[C@H](CCc1ccccc1)C(=O)N1CCC2(CC1)CS(=O)(=O)c1ccccc12,6
8,CC(C)(N)C(=O)N[C@H](CCC1CCCCC1)C(=O)N1CCC2(CC1)CS(=O)(=O)c1ccccc12.Cl,1.4
9,CC(C)(N)C(=O)N[C@H](CCCc1ccccc1)C(=O)N1CCC2(CC1)COc1ccccc12,2.7
10,CC(C)(N)C(=O)N[C@H](CCCc1ccccc1)C(=O)N1CCC2(CC1)C[S+]([O-])c1ccccc12.Cl (stereo partly specified),2
11,CC(C)(N)C(=O)N[C@H](CCC1CCCCC1)C(=O)N1CCC2(CC1)C[S+]([O-])c1ccccc12 (stereo partly specified),3.4
12,CC(C)(N)C(=O)N[C@H](COCc1ccccc1)C(=O)N1CCC2(CC1)CSc1ccccc12,10
13,CC(C)(N)C(=O)N[C@H](COCc1ccccc1)C(=O)N1CCC2(CC1)CS(=O)(=O)c1ccccc12,5
14,CC(C)(N)C(=O)N[C@H](Cc1c[nH]c2ccccc12)C(=O)N1CCC2(CC1)CS(=O)(=O)c1ccccc12,2.1
15,CC(C)(N)C(=O)N[C@H](CCCc1ccccc1)C(=O)N1CCC2(CC1)CS(=O)(=O)c1ccccc12.Cl,1.1
16,CC(C)(N)C(=O)N[C@H](COCc1ccccc1)C(=O)N1CCC2(CC1)C[S+]([O-])c1ccccc12 (stereo partly specified),8.5
17,CC(C)(N)C(=O)N[C@H](CCC1CCCCC1)C(=O)N1CCC2(CC1)CSc1ccccc12,8.1
